# Measurements as given in PMC9090415, “Discovery of small molecule inhibitors of Plasmodium falciparum apicoplast DNA polymerase” (Journal of Enzyme Inhibition and Medicinal Chemistry, 2022).
# Target: P. falciparum apicoplast DNA polymerase (Pf-apPOL) (Plasmodium falciparum, UniProt Q8ILY1)
# Assay: Fluorescence-based high-throughput DNA polymerase assay (molecular beacon), primary screen and dose-response
# Format: biochemical
# Details: for DNA Pol: 90 min, 10 µM
# Method: The HT assay employs a molecular beacon, a stem-loop DNA template with a Cy3 dye and the Black Hole Quencher on the 3′ and 5′ ends of the DNA, respectively. Pf-apPOL concentration is based on a calculated absorptivity of ε280 = 56750 M^−1 cm^−1. Reactions were carried out at 25 °C, using Corning 3575 […] (well-volume, 20 µL). Assays testing for compound inhibition composed of reaction buffer (pH 7.9 in 50 mM potassium acetate, 20 mM Tris-acetate and 10 mM magnesium acetate), Pf-apPOL (20 nM), DNA substrate (20 nM), dNTPs (6 µM), and compound (10 µM in DMSO). The DNA and nucleotide substrates (dNTPs) were at concentrations of 20 nM and 6 µM, respectively, in the assay. Pf-apPOL was incubated in the reaction buffer with dNTPs and the compound of interest (10 µM, in the assay) at 25 °C for 10 min. The DNA substrate was then added and the reaction was allowed to proceed for 90 min at 25 °C.
# Each assay plate contained 16 negative controls (no Pf-apPOL, DMSO present) and 16 positive controls (Pf-apPOL present, no DMSO). The fluorescence of each well was determined using a BioTek Synergy Neo fluorescence plate reader using excitation and emission wavelengths of 555 and 570 nm, respectively.
# In the above, Min is the average of fluorescence emission of the negative controls (substrate only), Max the average fluorescence emission from the positive controls (enzyme + substrate), and Test the emission from the assays in the presence of compounds (enzyme + compound + substrates). […] […] The IC50 of each compound was determined using Equation (2): (2) IC50= Vmax/(1+ (I/IC50)^n)
# In the above, n measures cooperativity, with n > 1 indicating synergistic binding of more than a single molecule of the compound.
# To identify apPOL inhibitors we utilised our previously developed high-throughput DNA polymerase assay. The HT assay is based on a molecular beacon DNA template that forms a stem-loop with a Cy3 dye and the Black Hole Quencher on the 3′ and 5′ ends of the DNA, respectively. DNA polymerase activity extends an annealed primer through the stem region, displacing the fluorophore from the quencher, thereby increasing its fluorescence (Figure 1(A)). The assay accurately recapitulates the kinetic behaviour of apPOL, as measured through more conventional low-throughput gel-based assays. The Z′ factor for the assay described here was 0.9 across all plates (data not shown).
# Figure 1. High-throughput screening. (A) The fluorescent-based DNA polymerase assay used to screen the compound libraries. The DNA template strand is a hairpin loop with a primer annealed to the loop. The 3’ end of the primer is 11 bases away from the 6 bp duplex. Strand displacement activity of the DNA polymerase separates the Cy3 dye from the Black hole quencher leading to an increase in fluorescent signal. (B) The high-throughput assay workflow. The DNA polymerase is incubated with […] compound for 10 min prior to addition of the hairpin substrate. The reaction is quenched at 3 different time points and the fluorescent signal is measured and % inhibition is determined using the provided equation.
# Sequence of P. falciparum apicoplast DNA polymerase (Pf-apPOL) (Q8ILY1 entry or part of it): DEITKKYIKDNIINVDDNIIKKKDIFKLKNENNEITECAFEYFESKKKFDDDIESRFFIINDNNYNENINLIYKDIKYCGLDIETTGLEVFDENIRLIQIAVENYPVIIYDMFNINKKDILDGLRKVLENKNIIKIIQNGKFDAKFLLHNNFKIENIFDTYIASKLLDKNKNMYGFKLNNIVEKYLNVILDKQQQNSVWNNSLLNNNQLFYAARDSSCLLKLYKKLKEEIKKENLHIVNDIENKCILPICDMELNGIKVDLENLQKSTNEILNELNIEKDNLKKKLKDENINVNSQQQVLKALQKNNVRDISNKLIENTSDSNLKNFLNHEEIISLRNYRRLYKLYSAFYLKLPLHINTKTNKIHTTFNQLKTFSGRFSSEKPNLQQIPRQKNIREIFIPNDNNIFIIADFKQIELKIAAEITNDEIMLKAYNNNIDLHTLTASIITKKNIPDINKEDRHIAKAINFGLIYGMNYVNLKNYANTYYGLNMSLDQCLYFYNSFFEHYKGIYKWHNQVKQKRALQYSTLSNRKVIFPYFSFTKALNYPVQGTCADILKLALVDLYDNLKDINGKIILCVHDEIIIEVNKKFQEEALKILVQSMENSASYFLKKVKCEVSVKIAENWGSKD
smiles,measurement,setting,value
"O=C(Nc1cccc(C(=O)Nc2ccc(S(=O)(=O)[O-])c3cc(S(=O)(=O)[O-])cc(S(=O)(=O)[O-])c23)c1)Nc1cccc(C(=O)Nc2ccc(S(=O)(=O)[O-])c3cc(S(=O)(=O)[O-])cc(S(=O)(=O)[O-])c23)c1.[Na+].[Na+].[Na+].[Na+].[Na+].[Na+] [Molecule 39, O=C(Nc1cccc(c1)C(=O)Nc1ccc(c2c1c(cc(c2)S(=O)(=O)[O-])S(=O)(=O)[O-])S(=O)(=O)[O-])Nc1cccc(c1)C(=O)Nc1ccc(c2c1c(cc(c2)S(=O)(=O)[O-])S(=O)(=O)[O-])S(=O)(=O)[O-].[Na+].[Na+].[Na+].[Na+].[Na+].[Na+]]",DNA Pol,"'DNA Pol' of the 186 hits list (primary screen result), unit not given",94
same,% inhibition Apo pol 10',"DRC-1, concentration 2.5",28.0363%
same,% inhibition Apo pol 10',"DRC-1, concentration 5",43.2303%
same,% inhibition Apo pol 10',"DRC-1, concentration 10",60.7681%
same,% inhibition Apo pol 10',"DRC-1, concentration 20",81.9365%
same,% inhibition Apo pol 10',"DRC-1, concentration 40",96.2832%
same,% inhibition Apo pol 10',"DRC-1, concentration 80",99.222%
same,% inhibition Apol 90',"DRC-1, 90', concentration 2.5",-1.332%
same,% inhibition Apol 90',"DRC-1, 90', concentration 5",6.063%
same,% inhibition Apol 90',"DRC-1, 90', concentration 10",22.6686%
same,% inhibition Apol 90',"DRC-1, 90', concentration 20",56.1821%
same,% inhibition Apol 90',"DRC-1, 90', concentration 40",89.9026%
same,% inhibition Apol 90',"DRC-1, 90', concentration 80",98.7402%
same,% inhibition apPOL 180',"DRC-1, concentration 2.5",-3.025%
same,% inhibition apPOL 180',"DRC-1, concentration 5",1.181%
same,% inhibition apPOL 180',"DRC-1, concentration 10",16.2132%
same,% inhibition apPOL 180',"DRC-1, concentration 20",51.6229%
same,% inhibition apPOL 180',"DRC-1, concentration 40",87.2271%
same,% inhibition apPOL 180',"DRC-1, concentration 80",98.5627%
same,% inhibition Apol 40',"DRC-2, 40', concentration 20 (unit not given)",56%
same,% inhibition ApPOL 90',"DRC-2, 90', concentration 20 (unit not given)",56%
same,% inhibition Apo pol 5',"DRC-2, concentration 2.5",12%
same,% inhibition Apo pol 5',"DRC-2, concentration 5",23%
same,% inhibition Apo pol 5',"DRC-2, concentration 10",41%
same,% inhibition Apo pol 5',"DRC-2, concentration 20",52%
same,% inhibition Apo pol 5',"DRC-2, concentration 40",59%
same,% inhibition Apo pol 5',"DRC-2, concentration 80",63%
same,% inhibition Apol 40',"DRC-2, 40', concentration 2.5",-11%
same,% inhibition Apol 40',"DRC-2, 40', concentration 5",4.26%
same,% inhibition Apol 40',"DRC-2, 40', concentration 10",29%
same,% inhibition Apol 40',"DRC-2, 40', concentration 20",56%
same,% inhibition Apol 40',"DRC-2, 40', concentration 40",75%
same,% inhibition Apol 40',"DRC-2, 40', concentration 80",79%
same,% inhibition ApPOL 90',"DRC-2, 90', concentration 2.5",-13%
same,% inhibition ApPOL 90',"DRC-2, 90', concentration 5",1%
same,% inhibition ApPOL 90',"DRC-2, 90', concentration 10",28%
same,% inhibition ApPOL 90',"DRC-2, 90', concentration 20",56%
same,% inhibition ApPOL 90',"DRC-2, 90', concentration 40",78%
same,% inhibition ApPOL 90',"DRC-2, 90', concentration 80",83%
same,% inhibition apPOL 180',"DRC-2, concentration 2.5",-3.36%
same,% inhibition apPOL 180',"DRC-2, concentration 5",7.57%
same,% inhibition apPOL 180',"DRC-2, concentration 10",31%
same,% inhibition apPOL 180',"DRC-2, concentration 20",58%
same,% inhibition apPOL 180',"DRC-2, concentration 40",80%
same,% inhibition apPOL 180',"DRC-2, concentration 80",86%
same,DNA Pol,"primary screen value of the library well, unit not given",94
"Cc1cccc(-c2nnc3ccc(NS(=O)(=O)c4ccc(C)c(C)c4)nn23)c1 [Molecule 40, Cc1cccc(c1)c1nnc2n1nc(cc2)NS(=O)(=O)c1ccc(c(c1)C)C]",% inhibition Apo pol 10',"DRC-1, concentration 2.5",17.5333%
same,% inhibition Apo pol 10',"DRC-1, concentration 5",15.8571%
same,% inhibition Apo pol 10',"DRC-1, concentration 10",58.8718%
same,% inhibition Apo pol 10',"DRC-1, concentration 20",64.4117%
same,% inhibition Apo pol 10',"DRC-1, concentration 40",83.8171%
same,% inhibition Apo pol 10',"DRC-1, concentration 80",87.6455%
same,% inhibition Apol 90',"DRC-1, 90', concentration 2.5",8.645%
same,% inhibition Apol 90',"DRC-1, 90', concentration 5",6.674%
same,% inhibition Apol 90',"DRC-1, 90', concentration 10",42.202%
same,% inhibition Apol 90',"DRC-1, 90', concentration 20",48.6788%
same,% inhibition Apol 90',"DRC-1, 90', concentration 40",74.666%
same,% inhibition Apol 90',"DRC-1, 90', concentration 80",86.8335%
same,% inhibition apPOL 180',"DRC-1, concentration 2.5",2.98%
same,% inhibition apPOL 180',"DRC-1, concentration 5",3.293%
same,% inhibition apPOL 180',"DRC-1, concentration 10",32.359%
same,% inhibition apPOL 180',"DRC-1, concentration 20",37.8584%
same,% inhibition apPOL 180',"DRC-1, concentration 40",67.3017%
same,% inhibition apPOL 180',"DRC-1, concentration 80",87.5255%
same,% inhibition Apo pol 5',"DRC-2, concentration 2.5",5%
same,% inhibition Apo pol 5',"DRC-2, concentration 5",15%
same,% inhibition Apo pol 5',"DRC-2, concentration 10",22%
same,% inhibition Apo pol 5',"DRC-2, concentration 20",26%
same,% inhibition Apo pol 5',"DRC-2, concentration 40",22%
same,% inhibition Apo pol 5',"DRC-2, concentration 80",17%
same,% inhibition Apol 40',"DRC-2, 40', concentration 2.5",4.3%
same,% inhibition Apol 40',"DRC-2, 40', concentration 5",18%
same,% inhibition Apol 40',"DRC-2, 40', concentration 10",30%
same,% inhibition Apol 40',"DRC-2, 40', concentration 20",44%
same,% inhibition Apol 40',"DRC-2, 40', concentration 40",51%
same,% inhibition Apol 40',"DRC-2, 40', concentration 80",53%
same,% inhibition ApPOL 90',"DRC-2, 90', concentration 2.5",3.29%
same,% inhibition ApPOL 90',"DRC-2, 90', concentration 5",17%
same,% inhibition ApPOL 90',"DRC-2, 90', concentration 10",29%
same,% inhibition ApPOL 90',"DRC-2, 90', concentration 20",46%
same,% inhibition ApPOL 90',"DRC-2, 90', concentration 40",57%
same,% inhibition ApPOL 90',"DRC-2, 90', concentration 80",62%
same,% inhibition apPOL 180',"DRC-2, concentration 2.5",-0.478%
same,% inhibition apPOL 180',"DRC-2, concentration 5",11%
same,% inhibition apPOL 180',"DRC-2, concentration 10",23%
same,% inhibition apPOL 180',"DRC-2, concentration 20",40%
same,% inhibition apPOL 180',"DRC-2, concentration 40",60%
same,% inhibition apPOL 180',"DRC-2, concentration 80",68%
same,% inhibition ApPOL 90',"conc. 5, 90', DRC-2",17%
same,% inhibition Apo pol 5',"conc. 10, DRC-2",22%
same,% inhibition Apo pol 5',"conc. 40, DRC-2",22%
same,% inhibition Apo pol 5',"conc. 80, DRC-2",17%
same,DNA Pol,primary screen value by plate and well,50
same,DNA Pol,"primary screen value of the 186 hits, unit not given",50
